Assays:
His-GRASP55 PDZ12 = molecular target: T1, His-GRASP55 PDZ12 (Mus musculus, UniProt Q99JX3); assay: differential scanning fluorimetry (SYPRO orange); assay type: binding; details: 4 μM protein, 50 μM Graspin, PBS, 2.5% DMSO
T1 construct: gene Gorasp2; tandem PDZ domains PDZ12 aa 2-208, N-terminal 6His tag, E. coli BL21(DE3)
Source text: differential scanning fluorimetry (SYPRO orange) on His-GRASP55 PDZ12 | […], but not the JAM-C peptide, decreased the GRASP55 melting temperature

GST-GRASP55 FL = molecular target: T2, GST-GRASP55 FL (Mus musculus, UniProt Q99JX3); assay: HTRF competition with biotinylated JAM-B C-terminal 19-mer peptide; assay type: binding
T2 construct: gene Gorasp2; full-length aa 2-451, N-terminal GST tag, E. coli BL21(DE3)

IC50 (GST-GRASP55 FL): 8.4 µM
Compound: CCCCCn1c(SCCCn2c(Br)nc3c2c(=O)[nH]c(=O)n3C)nc2c1c(=O)[nH]c(=O)n2C [Graspin]
dTm (His-GRASP55 PDZ12): Graspin, but not the JAM-C peptide, decreased the GRASP55 melting temperature
